Results as given in ChEMBL document CHEMBL1146440, “Brasilidine A, a new cytotoxic isonitrile-containing indole alkaloid from the actinomycete Nocardia brasiliensis” (J Nat Prod, 1997).
In brackets after ≈: the same amount, converted by molar mass.

Tests used:
L1210 = assay: Cytotoxicity against mouse L1210 cells; assay type: functional, cell-based
P388 [1] = assay: Cytotoxicity against mouse P388 cells; assay type: functional, cell-based
P388 [2] = assay: Cytotoxicity against mouse Adriamycin-resistant P388 cells; assay type: functional, cell-based
CHO [3] = assay: Cytotoxicity against CHO cells; assay type: cell-based, Cavia porcellus; details: Cricetulus griseus
CHO [4] = assay: Cytotoxicity against MDR1 gene transfected CHO cells; assay type: ADME, cell-based, Cavia porcellus; details: Cricetulus griseus

**Q.** Which results are given for `COc1cccc2c1C(=O)c1c(O)c3c(c(O)c1C2=O)C[C@@](O)(C(=O)CO)C[C@@H]3O[C@H]1C[C@H](N)[C@H](O)[C@H](C)O1` [DOXORUBICIN]?
**A.** IC50 (L1210): 0.09 µg/mL (≈ 0.166 µM); IC50 (P388 [1]): 0.09 µg/mL (≈ 0.166 µM); IC50 (P388 [2]): 0.55 µg/mL (≈ 1.01 µM); IC50 (CHO [3]): 0.01 µg/mL (≈ 0.0184 µM); IC50 (CHO [4]): 0.11 µg/mL (≈ 0.202 µM)
